Measured values published in patent publication US6462060B2, “Heterocyclic-hydroxyimino-fluorene nuclei compounds and pharmaceutical compositions for inhibiting protein kinases, and methods for their use” (Agouron Pharmaceuticals, Inc., priority 2000, dated 2002).

Columns and labels:
[1] = molecular target: T1, phosphorylated VEGF-R2Δ50 (FLVK-P) (Homo sapiens, UniProt P35968, DEL940-989/E990V); assay: VEGF-R2 coupled spectrophotometric (FLVK-P) assay; format: biochemical; conditions: phosphorylated VEGF-R2Δ50, 1 mM ATP
T1 construct: VEGF-R2Δ50 contains residues 806-939 and 990-1171; made in house; host or cells: baculovirus/insect cell system
Description: VEGF-R2 Construct for Assay: A construct (VEGF-R2Δ50) of the cytosolic domain of human vascular endothelial growth factor receptor 2 (VEGF-R2) lacking the 50 central residues of the 68 residues of the kinase insert domain was expressed in a baculovirus/insect cell system. Of the 1356 residues of full-length VEGF-R2, VEGF-R2Δ50 contains residues 806-939 and 990-1171, and also one point mutation (E990V) within the kinase insert domain relative to wild-type VEGF-R2. See McTigue et al., Structure, 7, 319-330 (1999); U.S. patent application Ser. No. 09/390,326, filed Sep. 7, 1999. Autophosphorylation of the purified construct was performed by incubation of the enzyme at a concentration of 4 μM in the presence of 3 mM ATP and 40 mM MgCl2 in 100 mM Hepes, pH 7.5, containing 5% glycerol and 5 mM DTT, at 4° C. for 2 h. […] See Parast et al., Biochemistry, 37, 16788-16801 (1998).
Coupled Spectrophotometric (FLVK-P) Assay
The production of ADP from ATP that accompanies phosphoryl transfer was coupled to oxidation of NADH using phosphoenolpyruvate (PEP) and a system having pyruvate kinase (PK) and lactic dehydrogenase (LDH). The oxidation of NADH was monitored by following the decrease of absorbance at 340 nm (e340=6.22 cm^−1 mM^−1) using a Beckman DU 650 spectrophotometer. Assay conditions for phosphorylated VEGF-R2Δ50 (indicated as FLVK-P in the tables below) were the following: 1 mM PEP; 250 μM NADH; 50 units of LDH/mL; 20 units of PK/mL; 5 mM DTT; […]; 1 mM ATP; and 25 mM MgCl2 in 200 mM Hepes, pH 7.5. Assay conditions for unphosphorylated VEGF-R2Δ50 (indicated as FLVK in the tables) were the following: 1 mM PEP; 250 ,M NADH; 50 units of LDH/mL; 20 units of PK/mL; 5 mM DTT; 20 mM poly(E4Y1); 3 mM ATP; and 60 mM MgCl2 and 2 mM MnCl2 in 200 mM Hepes, pH 7.5. Assays were initiated with 5 to 40 nM of enzyme. Ki values were determined by measuring enzyme activity in the presence of varying concentrations of test compounds. The data were analyzed using Enzyme Kinetic and Kaleidagraph software.

CHK-1 KH289 = molecular target: T2, CHK-1 KH289 (Homo sapiens, UniProt O14757); assay: CHK-1 assay (coupled spectrophotometric, Syntide-2); format: biochemical; conditions: for Ki: 10 nM CHK-1 KH289, 0.15 mM ATP
T2 construct: CHK-1 KH289 contains residues 1-289 of human CHK-1; 6xHis (C); made in house; host or cells: baculovirus/insect cell system
T2 sequence (O14757 1-289): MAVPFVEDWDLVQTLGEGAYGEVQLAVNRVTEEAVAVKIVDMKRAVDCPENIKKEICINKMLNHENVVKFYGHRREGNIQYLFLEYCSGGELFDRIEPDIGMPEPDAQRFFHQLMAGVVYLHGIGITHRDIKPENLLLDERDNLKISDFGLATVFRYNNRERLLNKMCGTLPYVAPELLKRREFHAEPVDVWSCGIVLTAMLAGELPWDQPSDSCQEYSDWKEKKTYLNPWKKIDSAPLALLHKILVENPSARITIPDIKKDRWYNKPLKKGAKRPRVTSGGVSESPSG
Description: CHK-1 KH289 contains residues 1-289 of human CHK-1 including the kinase domain. It contains 6 histidine residues (6×His-tag) at the C-terminus of residue 289. The protein was expressed in a baculovirus/insect cell system and purified by conventional chromatographic techniques.
(§1) The production of ADP from ATP that accompanies phosphoryl transfer to the synthetic substrate peptide Syntide-2 ([…]) was coupled to oxidation of NADH using phosphoenolpyruvate (PEP) through the actions of pyruvate kinase (PK) and lactic dehydrogenase (LDH). The oxidation of NADH was monitored by following the decrease of absorbance at 340 nm (ε340=6.22 cm^−1 mM^−1) using a HP8452 spectrophotometer. Typical reaction solutions contained: 4 mM PEP; 0.15 mM NADH; 28 units of LDH/ml; 16 units of PK/ml; 3 mM DTT; 0.125 mM Syntide2Σ; 0.15 mM ATP; 25 mM MgCl2 in 50 mM TRIS, pH 7.5; and 400 mM NaCl. Assays were initiated with 10 nM of CHK-1 KH289. Ki values were determined by measuring initial enzyme activity in the presence of varying concentrations of test compounds. The data were analyzed using Enzyme Kinetic and Kaleidagraph software.

CDK4/Cyclin D3 complex = molecular target: T3, CDK4/Cyclin D3 complex (Homo sapiens, UniProt P11802); assay: CDK4/Cyclin D assay (32P incorporation into Rb fragment); format: biochemical; conditions: apparent Ki; 50 nM CDK4/Cyclin D3 complex, 25 μM ATP
T3 construct: made in house; host or cells: insect cells co-infected with baculovirus expression vectors
Method: CDK4/Cyclin D Construct for Assay: A complex of human CDK4 and cyclin D3, or a complex of cyclin D1 and a fusion protein of human CDK4 and glutathione-S-transferase (GST-CDK4), was purified using traditional biochemical chromatographic techniques from insect cells that had been co-infected with the corresponding baculovirus expression vectors.
(§2) CDK2/Cyclin A and CDK4/Cyclin D Assays
Cyclin-dependent kinase activity was measured by quantifying the enzyme-catalyzed, time-dependent incorporation of radioactive phosphate from [^32P]ATP into a recombinant fragment of the retinoblastoma protein. Unless noted otherwise, assays were performed in 96-well plates in a total volume of 50 μL, in the presence of 10 mM HEPES (N-[2-hydroxyethyl]piperazine-N′-[2-ethanesulfonic acid]) (pH 7.4), 10 mM MgCl2, 25 μM adenosine triphosphate (ATP), 1 mg/mL ovalbumin, 5 μg/mL leupeptin, 1 mM dithiothreitol, 10 mM β-glycerophosphate, 0.1 mM sodium vanadate, 1 mM sodium fluoride, 2.5 mM ethylene glycol-bis(β-aminoethyl ether)-N,N,N′N′-tetraacetic acid (EGTA), 2% (v/v) dimethylsulfoxide, and 0.03-0.2 μCi [^32P]ATP. The substrate (0.3-0.5 μg) was purified recombinant retinoblastoma protein fragment (Rb) (residues 386-928 of the native retinoblastoma protein; 62.3 kDa, containing the majority of the phosphorylation sites found in the native 1 06kDa protein, as well as a tag of six histidine residues for ease of purification). Reactions were initiated with CDK2 (150 nM CDK2/Cyclin A complex) or CDK4 (50 nM CDK4/Cyclin D3 complex), incubated at 30° C., and terminated after 20 minutes by the addition of ethylenediaminetetraacetic acid (EDTA) to 250 mM. The phosphorylated substrate was then captured on a nitrocellulose membrane using a 96-well filtration manifold, and unincorporated radioactivity was removed by repeated washing with 0.85% phosphoric acid. Radioactivity was quantified by exposing the dried nitrocellulose membranes to a phosphorimager. Apparent Ki values were measured by assaying enzyme activity in the presence of different compound concentrations and subtracting the background radioactivity measured in the absence of enzyme. The kinetic parameters (kcat, Km for ATP) were measured for each enzyme under the usual assay conditions by determining the dependence of initial rates on ATP concentration. The data were fit to an equation for competitive inhibition using Kaleidagraph (Synergy Software), or were fit to an equation for competitive tight-binding inhibition using the software KineTic (BioKin, Ltd.). The specific activity of CDK4 was the same whether complexed to full-length cyclin D3 or the truncated Cyclin D3 construct; both complexes also yielded very similar Ki values for selected inhibitors.

U2-OS cells = assay: Inhibition of cell growth, MTT assay, U2-OS; format: cell-based; conditions: Homo sapiens, U2OS, 144 h, four to six days incubation
Method: (§3) Inhibition of Cell Growth: Assessment of Anti-proliferation with U2-OS, SAOS2, HCT116 Cancer Cell Lines
(§4) Inhibition of cell growth was measured using the tetrazolium salt assay, which is based on the ability of viable cells to reduce 3-(4,5-dimethylthiazol-2-yl)-2,5-[2H]-diphenyltetrazolium bromide (MTT) to formazan (Mossman, J. Immunological Methods, 65, 55-58 (1983)). The water-insoluble purple formazan product was then detected spectrophotometrically. The HCT 116, U2-OS, and SAOS 2 cell lines were each grown in 96-well plates, respectively. Cells were plated in the appropriate medium at a volume of 135 μL/well in McCoy's 5A Medium. Plates were incubated for 4 h before addition of inhibitor compounds.
(§5) Different concentrations of inhibitor compounds were added in 0.5% (v/v) dimethylsulfoxide (μL/well), and cells were incubated at 37° C. (5% CO2) for four to six days (depending on cell type). At the end of the incubation, MTT was added to a final concentration of 0.2 mg/mL, and cells were incubated for 4 h more at 37° C. After centrifugation of the plates and removal of medium, the absorbance of the formazan (solubilized in dimethylsulfoxide) was measured at 540 nm. The concentration of inhibitor compound causing 50% inhibition of growth was determined from the linear portion of a semi-log plot of inhibitor concentration versus percentage inhibition. […]

HCT 116 cells = assay: Inhibition of cell growth, MTT assay, HCT 116; format: cell-based; conditions: Homo sapiens, HCT-116, 144 h, four to six days incubation
Method: as §3, §4, §5

CDK2/Cyclin A complex = CDK2/Cyclin A complex (Homo sapiens, UniProt P24941); assay: CDK2/Cyclin A assay (32P incorporation into Rb fragment); format: biochemical; conditions: apparent Ki; 150 nM CDK2/Cyclin A complex, 25 μM ATP
Description: CDK2/Cyclin A Construct for Assay: CDK2 was purified using published methodology (Rosenblatt et al., J. Mol. Biol., 230, 1317-1319 (1993)) from insect cells that had been infected with a baculovirus expression vector. Cyclin A was purified from E. coli cells expressing full-length recombinant cyclin A, and a truncated cyclin A construct was generated by limited proteolysis and purified as described previously (Jeffrey et al., Nature, 376, 313-320 (1995)).
as §2
Cyclin-dependent kinase activity was measured by quantifying the enzyme-catalyzed, time-dependent incorporation of radioactive phosphate from [^32P]ATP into a recombinant fragment of the retinoblastoma protein. […] The phosphorylated substrate was then captured on a nitrocellulose membrane using a 96-well filtration manifold, and unincorporated radioactivity was removed by repeated washing with 0.85% phosphoric acid. Radioactivity was quantified by exposing the dried nitrocellulose membranes to a phosphorimager. Apparent Ki values were measured by assaying enzyme activity in the presence of different compound concentrations and subtracting the background radioactivity measured in the absence of enzyme. The kinetic parameters (kcat, Km for ATP) were measured for each enzyme under the usual assay conditions by determining the dependence of initial rates on ATP concentration. […]

SAOS 2 cells = assay: Inhibition of cell growth, MTT assay, SAOS 2; format: cell-based; conditions: Homo sapiens, SAOS-2, 144 h, four to six days incubation, read-out: SAOS2 IC50
Method: as §3, §4, §5

CDS1/CHK-2 (CDS1 CE4) = molecular target: T4, CDS1/CHK-2 (CDS1 CE4) (Homo sapiens, UniProt O96017); assay: CDS1 assay (conditions identical to the CHK-1 assay); format: biochemical; conditions: 10 nM CDS1
T4 construct: CDS1 CE4 contains residues 209-502 including the kinase domain; 6xHis leader with thrombin site; first M absent from the expressed protein) (N); made in house; host or cells: E. coli
Description: CDS1 Construct for Assay: CDS1 CE4 contains residues 209-502 including the kinase domain of human CDS1/CHK-2 (GenBank accession number AFO86904, Matsuoka et al., Science, 282, 1893-97 (1998)). It contains the amino acid sequence: […] at the N-terminus of residue 209. (The first M is not present in the expressed protein due to post-translational processing of the N-terminus.) The protein was expressed in E. coli and purified by conventional chromatographic techniques.
as §1
The CDS 1 assay was prepared under identical conditions to that of the CHK-1 assay, except with the use of 10 nM of CDS1.

T1 sequence (P35968 with tags, fused parts or gaps DEL940-989/E990V limits assumed): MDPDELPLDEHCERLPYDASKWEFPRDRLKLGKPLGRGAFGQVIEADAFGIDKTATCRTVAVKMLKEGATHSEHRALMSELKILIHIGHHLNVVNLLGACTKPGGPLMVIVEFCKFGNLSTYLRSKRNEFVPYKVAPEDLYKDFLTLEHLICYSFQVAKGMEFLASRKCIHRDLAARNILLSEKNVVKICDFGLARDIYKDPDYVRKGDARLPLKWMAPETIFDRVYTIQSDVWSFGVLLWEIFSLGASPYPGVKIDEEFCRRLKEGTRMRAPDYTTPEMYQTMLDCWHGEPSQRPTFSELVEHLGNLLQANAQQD
T4 sequence (O96017 209-502): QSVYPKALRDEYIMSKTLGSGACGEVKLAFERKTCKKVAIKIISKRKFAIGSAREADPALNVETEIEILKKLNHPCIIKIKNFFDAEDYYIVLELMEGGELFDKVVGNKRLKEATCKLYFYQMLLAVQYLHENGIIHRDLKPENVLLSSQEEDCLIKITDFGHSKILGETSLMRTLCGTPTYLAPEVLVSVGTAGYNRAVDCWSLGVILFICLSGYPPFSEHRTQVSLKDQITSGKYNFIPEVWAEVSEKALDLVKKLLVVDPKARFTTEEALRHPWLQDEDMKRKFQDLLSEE
T3 sequence (P11802 whole entry, the tested form may be a part): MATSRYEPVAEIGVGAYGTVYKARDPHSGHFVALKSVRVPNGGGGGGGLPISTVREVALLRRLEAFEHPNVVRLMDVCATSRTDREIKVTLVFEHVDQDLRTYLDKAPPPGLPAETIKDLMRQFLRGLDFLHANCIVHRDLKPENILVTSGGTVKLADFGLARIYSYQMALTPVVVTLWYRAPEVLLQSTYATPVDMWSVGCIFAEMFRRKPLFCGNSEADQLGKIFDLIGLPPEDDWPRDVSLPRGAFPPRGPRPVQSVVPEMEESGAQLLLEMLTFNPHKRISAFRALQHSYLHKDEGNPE
T3 sequence (P30281 whole entry partner, the tested form may be a part): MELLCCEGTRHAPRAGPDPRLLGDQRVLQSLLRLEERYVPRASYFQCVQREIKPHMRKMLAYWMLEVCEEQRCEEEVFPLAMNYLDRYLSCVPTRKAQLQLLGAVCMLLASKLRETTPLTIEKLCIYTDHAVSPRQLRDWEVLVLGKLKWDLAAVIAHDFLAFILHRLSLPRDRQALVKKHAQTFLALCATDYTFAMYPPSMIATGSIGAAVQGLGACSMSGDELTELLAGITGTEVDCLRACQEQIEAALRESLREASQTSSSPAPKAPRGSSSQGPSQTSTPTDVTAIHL

| Compound | Ki [1] | Ki (CHK-1 KH289) | Ki (CDK4/Cyclin D3 complex) | melting point | IC50 (U2-OS cells) | IC50 (HCT 116 cells) | Ki (CDK2/Cyclin A complex) | IC50 (SAOS 2 cells) | Ki (CDS1/CHK-2 (CDS1 CE4)) | inhibition at 10 µM (CHK-1 KH289; at 10 μM, read-out: CHK-1 KH289 percent inhibition) | inhibition at 25 µM (CHK-1 KH289; at 25 μM, read-out: CHK-1 KH289 percent inhibition) |
| --- | --- | --- | --- | --- | --- | --- | --- | --- | --- | --- | --- |
| ON=C1c2ccccc2-c2cc3[nH]cnc3cc21 (mixture of isomers) [Example A, 9(E/Z)-Hydroxyimino-3H-fluoreno[2,3-d]imidazole] | 1330 nM | 3600 nM | 2360 nM |  |  |  |  |  |  |  |  |
| Nc1nc2cc3c(cc2[nH]1)-c1ccccc1C3=NO (mixture of isomers) [Example B, 2-Amino-9(E/Z)-hydroxyimino-3H-fluoreno[2,3-d]imidazole] | 1900 nM | 5800 nM | 790 nM | 240 to 242 °C |  |  |  |  |  |  |  |
| ON=C1c2ccccc2-c2cc3[nH]nnc3cc21 (mixture of isomers) [Example C, 9(E/Z)-Hydroxyimino-3H-fluoreno[2,3-d]-1,2,3-triazole] | 1470 nM | 571 nM | 213 nM |  | 18000 nM | 10400 nM | 680 nM | 11000 nM |  |  |  |
| ON=C1c2cc(I)ccc2-c2cc3[nH]nnc3cc21 (mixture of isomers) [Example D, 9(E/Z)-Hydroxyimino-7-iodo-3H-fluoreno[2,3-d]-1,2,3-triazole] |  | 166 nM | 1200 nM |  |  |  |  |  | 21 nM |  |  |
| O/N=C1/c2ccccc2-c2nc3nonc3nc21 [Comparison Ex. 1, reference compound] | 15900 nM | 26600 nM | 2100 nM |  |  |  |  |  | 15000 nM |  |  |
| Nc1cc2c(cc1[N+](=O)[O-])-c1ccccc1C2=NO [Comparison Ex. 2(a), reference compound] | 15500 nM |  | 1790 nM |  |  |  |  |  |  | 14% |  |
| Nc1cc2c(cc1N)-c1ccccc1C2=NO [Comparison Ex. 2(b), reference compound] | 923 nM | 8100 nM | 3210 nM |  |  |  |  |  | 604 nM |  |  |
| Nc1cc2c(cc1[N+](=O)[O-])-c1cc([N+](=O)[O-])c(N)cc1C2=NO [Comparison Ex. 2(c), reference compound] |  |  | 3620 nM |  |  |  |  |  | 37000 nM |  | 33% |
